The values that follow come from patent US9605027B2, “Polypeptides that bound to IL-23 receptor and inhibit binding of IL-23 and cell signaling thereof” (Medical Diagnostic Laboratories, LLC, priority 2011, dated 2017).

This test addresses IL-23R pathway in STAT3-Luc reporter DB cells (Homo sapiens, UniProt Q5VWK5). The experiment in a line: Cell-based STAT3-Luc reporter DB cell assay (DB-Luc), inhibition of IL-23. As to the method:
The Cignal STAT3 reporter (SA Biosciences, CCS-9028L), designed to measure the transcriptional activity of STAT3 homodimers, was transiently transfected into the DB cells. The stably transfected STAT3-Luc reporter clone was selected using 200 ng/ml of Hygromycin B.
The stably transfected STAT3-Luc reporter DB cells (0.5×10^6) were cultured in 100 μl of RPMI+10% FBS. IL-23 was added to the cells and incubated at 37° C. for 4 hours. Luciferase activity was measured using Dual-Glo luciferase assay system (Promega).
The isolated cyclic polypeptide no. 23.15-Fc fusion protein and cyclic polypeptide no. 23.19 were used in a cell-based assay to measure the IC50 values. The stably transfected STAT3-Luc reporter DB cells (0.5×10^6) were cultured in 100 μl of RPMI+10% FBS. The cells were pre-incubated with different concentration of isolated cyclic polypeptide no. 23.15-Fc fusion protein or polypeptide no. 23.19 for 30 minutes at 37° C. 50 ng/ml of IL-23 was added to the cells and incubated at 37° C. for an additional 4 hours. Luciferase activity was measured using Dual-Glo luciferase assay system (Promega). The IC50 values of isolated cyclic polypeptide no. 23.15-Fc fusion protein and cyclic polypeptide no. 23.19 are 2.5 μM and 2.5 μM respectively.
The isolated peptide no. 7 (SEQ ID NO: 156) and peptide no. 23.19 (SEQ ID NO: 130) (it is a cyclic version of the polypeptide no. 23.15) were used in a cell based assay to compare their inhibitory activity. The stably transfected STAT3-Luc reporter DB cells (0.5×10^6) were cultured in 100 μl of RPMI+10% FBS. The cells were pre-incubated with two different concentrations (10 μM and 2 μM) of isolated peptides for 30 minutes at 37° C. 50 ng/ml of IL-23 was added to the cells and incubated at 37° C. for an additional 4 hours. Luciferase activity was measured using Dual-Glo luciferase assay system (Promega). The inhibitory activity of isolated peptide no. 7 (SEQ ID NO: 156) is better than that of peptide no. 23.19 (SEQ ID NO: 130) (a cyclic version of polypeptide no. 23.15 (SEQ ID NO: 126) (See, FIG. 62).
DB cells express IL-23R on the cell surface. In addition, IL-23 stimulated the DB cells through the activation of STAT3 by phosphorylation (p-STAT3) (Example 7 (Figures. 14 and 15)). Based on these observations, DB cells were used to develop a cell-based assay to measure the inhibitory activity of peptide and peptide-Fc fusion protein in the IL-23R pathway. […]
The Cignal STAT3 reporter (SA Biosciences, CCS-9028L), which is designed to measure the transcriptional activity of STAT3 homodimers, was transiently transfected into the DB cells. The stably transfected STAT3-Luc reporter clone was selected using 200 ng/ml of Hygromycin B. The activity of IL-23R pathway can be measured by the transcriptional activity of STAT3 homodimers. […]

Structures are written as SMILES. “Also recorded” adds a separate entry of the source. Read-outs that look alike come from different tables or passages of the source. Peptide text beside a SMILES is read from it.

Chain of IL-23R pathway in STAT3-Luc reporter DB cells (Q5VWK5 24-629 limits assumed): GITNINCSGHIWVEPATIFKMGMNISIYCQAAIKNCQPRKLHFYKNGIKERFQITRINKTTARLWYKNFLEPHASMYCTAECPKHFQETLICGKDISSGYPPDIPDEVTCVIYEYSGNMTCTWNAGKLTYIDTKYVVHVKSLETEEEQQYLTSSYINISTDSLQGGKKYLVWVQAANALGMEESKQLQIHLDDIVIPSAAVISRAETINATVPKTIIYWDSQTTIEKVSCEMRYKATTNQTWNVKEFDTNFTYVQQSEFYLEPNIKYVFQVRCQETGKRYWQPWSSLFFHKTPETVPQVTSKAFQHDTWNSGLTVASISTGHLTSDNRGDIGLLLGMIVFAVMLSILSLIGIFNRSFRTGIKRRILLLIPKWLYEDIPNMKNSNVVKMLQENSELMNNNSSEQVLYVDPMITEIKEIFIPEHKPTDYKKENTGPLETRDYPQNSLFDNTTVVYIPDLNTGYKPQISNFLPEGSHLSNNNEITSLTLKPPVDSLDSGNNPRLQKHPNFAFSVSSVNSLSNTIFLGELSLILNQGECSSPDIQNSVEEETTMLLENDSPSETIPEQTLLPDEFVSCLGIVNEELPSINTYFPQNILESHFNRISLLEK

For orientation: IC50 means the concentration that inhibits the measured activity by half. In the case of `CSCC[C@@H]1NC(=O)[C@H](CCCCN)NC(=O)[C@H](C)NC(=O)[C@H](C)NC(=O)[C@H](CS)NC(=O)[C@H](CC(N)=O)NC(=O)[C@H](CCCCN)NC(=O)[C@H](CC(C)C)NC(=O)[C@H](Cc2c[nH]c3ccccc23)NC(=O)[C@H](Cc2ccc(O)cc2)NC(=O)[C@H](CC(=O)O)NC(=O)[C@H](C(C)C)NC(=O)[C@H](Cc2c[nH]c3ccccc23)NC(=O)[C@H]([C@@H](C)O)NC1=O` [2HT AA] (cyclo(AAKMTWVDYWLKNC)), the “inhibitory activity in cell-based DB-Luc assay” value (cyclic vs linear peptides) was “did not eliminate the inhibitory activity; also recorded: best inhibitory activity”. Also, the IC50 (procedure of Example 29, read-out: IC50, cell-based DB-Luc assay) amounted to 342 nM. Turning to `CSCC[C@@H]1NC(=O)[C@H](C)NC(=O)[C@@H](N)CSSC[C@@H](C(=O)O)NC(=O)[C@H](CCCNC(=N)N)NC(=O)CNC(=O)[C@H](Cc2ccc(O)cc2)NC(=O)[C@H](CC(C)C)NC(=O)[C@H](Cc2c[nH]c3ccccc23)NC(=O)[C@H](Cc2ccc(O)cc2)NC(=O)[C@H](CC(=O)O)NC(=O)[C@H](CCC(N)=O)NC(=O)[C@H](Cc2c[nH]c3ccccc23)NC(=O)[C@H]([C@@H](C)O)NC1=O` [23.19], the 50% inhibitory concentration (IC50) (50 ng/ml IL-23, 4 hours, read-out: IC50, cell-based STAT3-Luc assay) worked out at 2500 nM.
